Experimental data taken from PubChem BioAssay (NCI).
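These data come from cells grown in 96-well plates and exposed to compound for 48 hours at five concentrations. At the TGI there is no net growth.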

What was measured:
Test in all cases: DTP human tumour cell line panel, 48 h
786-0 renal = tested on: 786-0 renal
A498 renal = tested on: A498 renal
A549 NSCLC = tested on: A549 NSCLC
ACHN renal = tested on: ACHN renal
BT-549 breast = tested on: BT-549 breast
CAKI-1 renal = tested on: CAKI-1 renal
CCRF-CEM leukemia = tested on: CCRF-CEM leukemia
COLO 205 colon = tested on: COLO 205 colon
DU-145 prostate = tested on: DU-145 prostate
EKVX NSCLC = tested on: EKVX NSCLC
HCC-2998 colon = tested on: HCC-2998 colon
HCT-116 colon = tested on: HCT-116 colon
HCT-15 colon = tested on: HCT-15 colon
HL-60(TB) leukemia = tested on: HL-60(TB) leukemia
HOP-62 NSCLC = tested on: HOP-62 NSCLC
HOP-92 NSCLC = tested on: HOP-92 NSCLC
HS 578T breast = tested on: HS 578T breast
HT29 colon = tested on: HT29 colon
IGROV1 ovarian = tested on: IGROV1 ovarian
K-562 leukemia = tested on: K-562 leukemia
KM12 colon = tested on: KM12 colon
LOX IMVI melanoma = tested on: LOX IMVI melanoma
M14 melanoma = tested on: M14 melanoma
MALME-3M melanoma = tested on: MALME-3M melanoma
MCF7 breast = tested on: MCF7 breast
MDA-MB-231 breast = tested on: MDA-MB-231 breast
MDA-MB-435 = tested on: MDA-MB-435
MDA-N = tested on: MDA-N
MOLT-4 leukemia = tested on: MOLT-4 leukemia
NCI-H226 lung = tested on: NCI-H226 lung
NCI-H23 lung = tested on: NCI-H23 lung
NCI-H460 lung = tested on: NCI-H460 lung
NCI-H522 lung = tested on: NCI-H522 lung
NCI/ADR-RES ovarian = tested on: NCI/ADR-RES ovarian
OVCAR-3 ovarian = tested on: OVCAR-3 ovarian
OVCAR-4 ovarian = tested on: OVCAR-4 ovarian
OVCAR-5 ovarian = tested on: OVCAR-5 ovarian
OVCAR-8 ovarian = tested on: OVCAR-8 ovarian
PC-3 prostate = tested on: PC-3 prostate
RPMI-8226 leukemia = tested on: RPMI-8226 leukemia
SF-268 CNS = tested on: SF-268 CNS
SF-295 CNS = tested on: SF-295 CNS
SF-539 CNS = tested on: SF-539 CNS
SK-MEL-2 melanoma = tested on: SK-MEL-2 melanoma
SK-MEL-28 melanoma = tested on: SK-MEL-28 melanoma
SK-MEL-5 melanoma = tested on: SK-MEL-5 melanoma
SK-OV-3 ovarian = tested on: SK-OV-3 ovarian
SN12C renal = tested on: SN12C renal
SNB-19 CNS = tested on: SNB-19 CNS
SNB-75 CNS = tested on: SNB-75 CNS
SR leukemia = tested on: SR leukemia
SW-620 colon = tested on: SW-620 colon
T-47D breast = tested on: T-47D breast
TK-10 renal = tested on: TK-10 renal
U251 CNS = tested on: U251 CNS
UACC-257 melanoma = tested on: UACC-257 melanoma
UACC-62 melanoma = tested on: UACC-62 melanoma
UO-31 renal = tested on: UO-31 renal
RXF 393 renal = tested on: RXF 393 renal

COc1ccc(P2(=S)Oc3ccc(C(c4ccccc4)(c4ccccc4)c4ccccc4)cc3O2)cc1 (configuration not stated)
TGI (786-0 renal): 32.2 µM | TGI (A498 renal): 31.8 µM | TGI (A549 NSCLC): 30.7 µM | TGI (ACHN renal): 30.5 µM | TGI (BT-549 breast): 41.3 µM | TGI (CAKI-1 renal): 33.9 µM | TGI (CCRF-CEM leukemia): 49 µM | TGI (COLO 205 colon): 34.5 µM | TGI (DU-145 prostate): 35.1 µM | TGI (EKVX NSCLC): 34.6 µM | TGI (HCC-2998 colon): 30.6 µM | TGI (HCT-116 colon): 32 µM | TGI (HCT-15 colon): 34.8 µM | TGI (HL-60(TB) leukemia): 32.1 µM | TGI (HOP-62 NSCLC): 41.5 µM | TGI (HOP-92 NSCLC): 32.4 µM | TGI (HS 578T breast): 41 µM | TGI (HT29 colon): 33.4 µM | TGI (IGROV1 ovarian): 32.1 µM | TGI (K-562 leukemia): 33.8 µM | TGI (KM12 colon): 28.5 µM | TGI (LOX IMVI melanoma): 28 µM | TGI (M14 melanoma): 27.3 µM | TGI (MALME-3M melanoma): 34.8 µM | TGI (MCF7 breast): 34.9 µM | TGI (MDA-MB-231 breast): 38.9 µM | TGI (MDA-MB-435): 30.1 µM | TGI (MDA-N): 32.7 µM | TGI (MOLT-4 leukemia): 41.7 µM | TGI (NCI-H226 lung): 31.6 µM | TGI (NCI-H23 lung): 31.7 µM | TGI (NCI-H460 lung): 34.8 µM | TGI (NCI-H522 lung): 31.9 µM | TGI (NCI/ADR-RES ovarian): 39.5 µM | TGI (OVCAR-3 ovarian): 31 µM | TGI (OVCAR-4 ovarian): 25.9 µM | TGI (OVCAR-5 ovarian): 33.6 µM | TGI (OVCAR-8 ovarian): 29.8 µM | TGI (PC-3 prostate): 27.1 µM | TGI (RPMI-8226 leukemia): 48.1 µM | TGI (SF-268 CNS): 32.2 µM | TGI (SF-295 CNS): 33.5 µM | TGI (SF-539 CNS): 34.4 µM | TGI (SK-MEL-2 melanoma): 35.3 µM | TGI (SK-MEL-28 melanoma): 34.3 µM | TGI (SK-MEL-5 melanoma): 36.2 µM | TGI (SK-OV-3 ovarian): 37.5 µM | TGI (SN12C renal): 31.7 µM | TGI (SNB-19 CNS): 29.8 µM | TGI (SNB-75 CNS): 26.8 µM | TGI (SR leukemia): 47.5 µM | TGI (SW-620 colon): 34.6 µM | TGI (T-47D breast): 28 µM | TGI (TK-10 renal): 33.4 µM | TGI (U251 CNS): 31.9 µM | TGI (UACC-257 melanoma): 34.2 µM | TGI (UACC-62 melanoma): 26.2 µM | TGI (UO-31 renal): 30.8 µM

Cn1c(=O)c2c(nc3sc4nc5ccccc5nc4n32)n(C)c1=O
TGI (786-0 renal): > 100 µM | TGI (A498 renal): > 100 µM | TGI (A549 NSCLC): > 100 µM | TGI (ACHN renal): > 100 µM | TGI (BT-549 breast): > 100 µM | TGI (CAKI-1 renal): > 100 µM | TGI (CCRF-CEM leukemia): > 100 µM | TGI (COLO 205 colon): > 100 µM | TGI (DU-145 prostate): > 100 µM | TGI (EKVX NSCLC): > 100 µM | TGI (HCC-2998 colon): > 100 µM | TGI (HCT-116 colon): > 100 µM | TGI (HCT-15 colon): > 100 µM | TGI (HL-60(TB) leukemia): > 100 µM | TGI (HOP-92 NSCLC): > 100 µM | TGI (HS 578T breast): > 100 µM | TGI (HT29 colon): > 100 µM | TGI (IGROV1 ovarian): > 100 µM | TGI (K-562 leukemia): > 100 µM | TGI (KM12 colon): > 100 µM | TGI (LOX IMVI melanoma): > 100 µM | TGI (M14 melanoma): > 100 µM | TGI (MALME-3M melanoma): > 100 µM | TGI (MCF7 breast): > 100 µM | TGI (MDA-MB-231 breast): > 100 µM | TGI (MDA-MB-435): > 100 µM | TGI (MDA-N): > 100 µM | TGI (MOLT-4 leukemia): > 100 µM | TGI (NCI-H226 lung): > 100 µM | TGI (NCI-H23 lung): > 100 µM | TGI (NCI-H460 lung): > 100 µM | TGI (NCI/ADR-RES ovarian): > 100 µM | TGI (OVCAR-3 ovarian): > 100 µM | TGI (OVCAR-5 ovarian): > 100 µM | TGI (OVCAR-8 ovarian): > 100 µM | TGI (PC-3 prostate): > 100 µM | TGI (RPMI-8226 leukemia): > 100 µM | TGI (RXF 393 renal): > 100 µM | TGI (SF-268 CNS): > 100 µM | TGI (SF-295 CNS): > 100 µM | TGI (SF-539 CNS): > 100 µM | TGI (SK-MEL-5 melanoma): > 100 µM | TGI (SK-OV-3 ovarian): > 100 µM | TGI (SN12C renal): > 100 µM | TGI (SNB-19 CNS): > 100 µM | TGI (SNB-75 CNS): > 100 µM | TGI (SR leukemia): > 100 µM | TGI (T-47D breast): > 100 µM | TGI (TK-10 renal): > 100 µM | TGI (U251 CNS): > 100 µM | TGI (UACC-257 melanoma): > 100 µM | TGI (UACC-62 melanoma): > 100 µM | TGI (UO-31 renal): > 100 µM

OC1CC2CCCN(CCc3c1[nH]c1ccccc31)C2 (configuration not stated)
TGI (786-0 renal): > 100 µM | TGI (A498 renal): > 100 µM | TGI (A549 NSCLC): > 100 µM | TGI (ACHN renal): > 100 µM | TGI (BT-549 breast): > 100 µM | TGI (CAKI-1 renal): > 100 µM | TGI (CCRF-CEM leukemia): > 100 µM | TGI (COLO 205 colon): > 100 µM | TGI (DU-145 prostate): > 100 µM | TGI (HCC-2998 colon): > 100 µM | TGI (HCT-116 colon): > 100 µM | TGI (HCT-15 colon): > 100 µM | TGI (HL-60(TB) leukemia): > 100 µM | TGI (HOP-92 NSCLC): > 100 µM | TGI (HS 578T breast): > 100 µM | TGI (HT29 colon): > 100 µM | TGI (K-562 leukemia): > 100 µM | TGI (KM12 colon): > 100 µM | TGI (LOX IMVI melanoma): > 100 µM | TGI (MALME-3M melanoma): > 100 µM | TGI (MCF7 breast): > 100 µM | TGI (MDA-MB-231 breast): > 100 µM | TGI (MDA-MB-435): > 100 µM | TGI (MDA-N): > 100 µM | TGI (NCI-H226 lung): > 100 µM | TGI (NCI-H23 lung): > 100 µM | TGI (NCI-H460 lung): > 100 µM | TGI (NCI-H522 lung): > 100 µM | TGI (NCI/ADR-RES ovarian): > 100 µM | TGI (OVCAR-4 ovarian): > 100 µM | TGI (OVCAR-8 ovarian): > 100 µM | TGI (PC-3 prostate): > 100 µM | TGI (RPMI-8226 leukemia): > 100 µM | TGI (SF-268 CNS): > 100 µM | TGI (SF-295 CNS): > 100 µM | TGI (SF-539 CNS): > 100 µM | TGI (SK-MEL-2 melanoma): > 100 µM | TGI (SK-MEL-28 melanoma): > 100 µM | TGI (SK-MEL-5 melanoma): > 100 µM | TGI (SK-OV-3 ovarian): > 100 µM | TGI (SN12C renal): > 100 µM | TGI (SNB-19 CNS): > 100 µM | TGI (SNB-75 CNS): > 100 µM | TGI (SR leukemia): > 100 µM | TGI (SW-620 colon): > 100 µM | TGI (T-47D breast): > 100 µM | TGI (TK-10 renal): > 100 µM | TGI (U251 CNS): > 100 µM | TGI (UACC-257 melanoma): > 100 µM | TGI (UACC-62 melanoma): > 100 µM | TGI (UO-31 renal): > 100 µM
